“And” between values parts separate entries of the source, which are not always exact repeats. Equal values may be shown once. Read-outs that look alike come from different tables or passages of the source.
Assays:
[1] = pKa determination by UV/vis spectrometric method; assay type: physicochemical; details: buffers I = 0.1 M, 1% methanol
Excerpt: For the successful determination of pKa values using the UV/vis spectrometric method, the UV/vis absorbance of the sample must change as a function of ionization. […] For the other investigated compounds, the spectra and results of data analysis are presented in the Supporting Information (Figures S1–S3). […] At lower pH values, the molecules are neutral with an absorption maximum between 311 nm and 343 nm. At the highest pH value, only deprotonated species are present with two absorption maxima, one at a wavelength around 370 nm and the other around 305 nm. […] Data analysis for the determination of ionization constants by spectral analysis applied in this study is described by Tomsho et al. and Ríos Martínez and Dardonville.
The results of repeated measurements show satisfactory precision with scatter values less than or equal to 0.06 for all compounds [36].
Working solutions were prepared by 100-fold dilution of stock solutions with appropriate buffer solutions.
Chemicals used for preparation of buffers were sodium acetate (Alkaloid, Skopje, Macedonia), potassium dihydrogenphosphate (Lach-ner, Neratovice, Czech Republic), sodium hydrogencarbonate (Kemika, Zagreb, Croatia), and dipotassium hydrogenphosphate (Fisher Chemical, Loughborough, UK). Sodium hydroxide was supplied by Gram-mol (Zagreb, Croatia), and hydrochloric acid was supplied by VWR Chemicals (Leuven, Belgium). All chemicals used were of analytical grade and used as received. For the preparation of buffer solutions for spectrophotometric measurements, stock solutions of 0.1 M sodium acetate, 0.05 M potassium dihydrogen phosphate, 0.05 M sodium hydrogen carbonate, and 0.05 M dipotassium hydrogen phosphate were used. Sodium acetate/acetic acid buffer was used for pH range 3.5−5.0, KH2PO4/K2HPO4 for pH range 5.5–8.5, […] for pH range 9.0−11.0, and K2HPO4/K3PO4 for pH range 11.0−11.5. All buffer solutions were prepared with the same ionic strength (I = 0.1 M) by adding KCl (Lach-ner, Neratovice, Czech Republic).
The exact pH value of the prepared buffer solutions was measured with an S20 SevenEasy pH-meter (MettlerToledo, Greifenseea, Switzerland).
The data analysis was carried out in the entire specified range. However, due to high absorbance at short wavelengths and zero absorbance at wavelengths greater than 500 nm, spectra in the range from 250 nm to 500 nm are shown in the figures for a clearer presentation. […] Appropriate buffer solutions were used as a blank.
Data analysis included correction of the raw spectra (A(500 nm) = 0) and the calculation of the spectral difference, which were performed using Excel program. The spectral difference was determined between the spectra recorded at each pH and at the spectra recorded at the lowest pH. The wavelengths of maximum positive and negative deviations were determined from the spectral difference graph. The absolute values of the absorbance difference at the determined wavelengths were summed to obtain total absorbance difference. The dependence of the total absorbance difference on pH (spectral difference graph) gives a characteristic sigmoidal curve. […] (1) Total absorbace difference = STεHA−εA^−·10^(pH−pKa)/1+10^(pH−pKa) where [ST] is the total substance concentration, and εHA and εA^− represent the extinction coefficients of the acidic and basic form of the compound, respectively.
Measurements were performed using freshly prepared working solutions. For each resveratrol analogue and each pH, three consecutive measurements were made.

[2] = literature value, no reference given; cited from earlier work
[3] = mean of three determinations, read-out: pKa¯ ± Scatter Value
[4] = single determination (one of three)
[5] = single determination (one of three), read-out: pKa

SMILES | pKa [1, 3] | pKa [1, 4] | pKa [1, 5] | experimental pKa^exp [2]
Oc1ccccc1/C=C/c1cccs1 [Compound 2, (E)-2-(2-(Thiophen-2-yl)vinyl)phenol] | 9.88 ± 0.04 | 9.86 and 9.92 | 9.85 | –
Oc1cccc(/C=C/c2cccs2)c1 [Compound 3, (E)-3-(2-(Thiophen-2-yl)vinyl)phenol] | 10.1 | 10.05 | 10.1 | –
COc1ccc(/C=C/c2cccs2)c(O)c1 [Compound 4, (E)-5-Methoxy-2-(2-(thiophen-2-yl)vinyl)phenol] | 9.17 ± 0.06 | 9.21 and 9.11 | 9.19 | –
Cc1ccc(/C=C/c2ccccc2O)s1 [Compound 5, (E)-2-(2-(5-Methylthiophen-2-yl)vinyl)phenol] | 9.4 | 9.36 | 9.45 | –
COc1ccc(/C=C/c2ccc(C)s2)c(O)c1 [Compound 6, (E)-5-Methoxy-2-(2-(5-methythiophen-2-yl)vinyl)phenol] | 9.62 | 9.59 and 9.66 | 9.62 | –
COc1cccc(O)c1 [meta-methoxyphenol] | – | – | – | 9.6

From paper PMC11597387 (Molecules, 2024)
